Reference: patent publication US20240247266A1, “METHODS AND COMPOSITIONS FOR TREATING AN ANGIOTENSINOGEN- (AGT-) ASSOCIATED DISORDER” (Alnylam Pharmaceuticals, Inc., priority 2021, published 2024)

Key:
Assay type in all cases: in vivo, human
serum AGT = experiment: Example 5 (Part E, irbesartan co-administration): serum AGT; conditions: add-on 300 mg orally daily after 800 mg AD-85481
Procedure: (§1) In a multicenter, randomized, double-blinded, placebo-controlled, single ascending fixed dose study to assess the safety and efficacy of AD-85481 (Zilebesiran) after a single fixed dose administration to subjects having hypertension (ClinicalTrials.gov Identifier: NCT03934307, Part A), a sub-study was performed to assess the safety and tolerability of AD-85481 (Zilebesiran) in hypertensive patients during irbesartan co-administration (NCT03934307, Part E). Briefly, all patients received an open-label single 800 mg fixed dose of AD-85481 by subcutaneous administration on Day 1. On Day 41, patients with a 24-hr mean systolic blood pressure (SBP)≥120 mmHg (N=10) proceeded to receive irbesartan (300 mg oral) once daily from Day 43 to Day 57 for 14 days (FIG. 10).
(§2) The safety and tolerability, change from baseline in serum AGT, and plasma and urine pharmacokinetic parameters were evaluated. Change from baseline in blood pressure was also assessed by 24-hour ABPM.

[1] = test system: patients with hypertension; experiment: Example 5: blood pressure by 24 hour ABPM with irbesartan add-on; conditions: daily add-on for 2 weeks to zilebesiran 800 mg, Day 43-57
Procedure: as §1, with “10). The safety and tolerability, change from baseline in serum AGT, and plasma and urine pharmacokinetic parameters were evaluated. Change from baseline in blood pressure was also assessed by 24-hour ABPM. Assessments of AD-85481 also included change from baseline in SBP and DBP determined by 24 hour ambulatory blood pressure monitoring (ABPM).” for “10).”

[2] = test system: patients with hypertension; experiment: Example 5: safety and tolerability during irbesartan co-administration; conditions: add-on treatment with zilebesiran
Procedure: as §1, §2
Safety was reported from the start of the study to Day 85. […] There was one mild SAE of acute anemia in the irbesartan add-on group, but was considered not related to study drug, which was a complication of esophagogastroduodenoscopy with biopsy performed during screening prior to dose of zilebesiran.

CCCCC1=NC2(CCCC2)C(=O)N1Cc1ccc(-c2ccccc2-c2nnn[nH]2)cc1 [irbesartan]
effect on serum AGT levels (serum AGT): no additional effect
effect on systolic and diastolic BP (in words) [1]: further reduced systolic and diastolic BP
changes in creatinine or potassium [2]: without clinically significant changes in creatinine or potassium
